Assay results taken from US20260374739A1, “SMALL MOLECULAR WEIGHT CHEMICAL COMPOUND TO ANTAGONIZE EPH-EPHRIN TETRAMERIZATION AND INHIBIT BIDIRECTIONAL SIGNALING” (THE BOARD OF REGENTS OF THE UNIVERSITY OF TEXAS SYSTEM, priority 2022, published 2026).
Where “and” joins values, the source holds several entries; their conditions need not be identical. Identical values can stand only once.

Legend:
EphrinB2-EphB2 = molecular target: T1, EphrinB2-EphB2 (Homo sapiens, UniProt P29323); assay: Octet tetramerization inhibition, immobilized human EphrinB2 binding to 50 nM soluble human EphB2; conditions: EphrinB2-EphB2
T1 construct: soluble human EphB1-His, EphB2-His, and EphB4-His ectodomains; commercially available human EphrinB1-Fc (EB1), EphrinB2-Fc (EB2), and EphrinB3-Fc (EB3) ectodomain proteins; purchased
T1 sequence (P29323 19-543 limits assumed): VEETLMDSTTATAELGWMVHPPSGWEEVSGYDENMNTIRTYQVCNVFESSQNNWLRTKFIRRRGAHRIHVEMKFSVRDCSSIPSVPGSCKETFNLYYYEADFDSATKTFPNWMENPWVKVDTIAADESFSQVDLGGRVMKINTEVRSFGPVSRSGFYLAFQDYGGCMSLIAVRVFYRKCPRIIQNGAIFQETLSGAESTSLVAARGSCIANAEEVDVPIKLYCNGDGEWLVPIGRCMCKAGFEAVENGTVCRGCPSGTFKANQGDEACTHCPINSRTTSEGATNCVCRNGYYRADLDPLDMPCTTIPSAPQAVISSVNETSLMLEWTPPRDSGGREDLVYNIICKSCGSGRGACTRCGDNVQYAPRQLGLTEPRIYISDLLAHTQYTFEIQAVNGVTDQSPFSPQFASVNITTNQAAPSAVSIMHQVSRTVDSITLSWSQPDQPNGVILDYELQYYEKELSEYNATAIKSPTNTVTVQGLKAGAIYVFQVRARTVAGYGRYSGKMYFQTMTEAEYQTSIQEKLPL

EphrinB2-EphB1 = molecular target: T2, EphrinB2-EphB1 (Homo sapiens, UniProt P54762); assay: Octet 80 sec association/500 sec dissociation, immobilized human EphrinB2-Fc binding to soluble human EphB1-His; conditions: immobilized human EphrinB2, 25 nM soluble human EphB1
T2 construct: soluble human EphB1-His, EphB2-His, and EphB4-His ectodomains; commercially available human EphrinB1-Fc (EB1), EphrinB2-Fc (EB2), and EphrinB3-Fc (EB3) ectodomain proteins; purchased
T2 sequence (P54762 18-540 limits assumed): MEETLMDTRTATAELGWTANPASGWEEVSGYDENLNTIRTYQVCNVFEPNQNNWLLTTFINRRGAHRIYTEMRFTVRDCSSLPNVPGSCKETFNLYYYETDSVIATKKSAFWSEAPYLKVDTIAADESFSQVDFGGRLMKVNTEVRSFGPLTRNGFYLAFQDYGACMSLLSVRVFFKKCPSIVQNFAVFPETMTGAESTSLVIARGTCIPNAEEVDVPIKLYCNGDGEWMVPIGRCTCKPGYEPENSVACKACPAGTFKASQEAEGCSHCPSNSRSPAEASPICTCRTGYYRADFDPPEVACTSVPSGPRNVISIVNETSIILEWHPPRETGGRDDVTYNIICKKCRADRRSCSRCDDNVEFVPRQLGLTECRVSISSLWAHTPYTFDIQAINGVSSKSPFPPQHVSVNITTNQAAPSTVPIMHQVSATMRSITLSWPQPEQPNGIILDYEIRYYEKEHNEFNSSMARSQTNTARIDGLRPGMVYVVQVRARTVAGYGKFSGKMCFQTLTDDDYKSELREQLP
In short: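 EphrinB2-Fc captured on AHC biosensors, then soluble His-tagged EphB ectodomain (25 nM for % inhibition runs) associated 80 s and dissociated 500 s in PBS, 0.05% Tween-20, 1% DMSO ± compound. Compounds tested at 0.1–3.2 μM with a 10 μM max standard; IC50 from AUC of full traces or at 75 s and 135 s.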

For `Oc1c(Br)cc(CN2CCN(c3ccc(Br)cc3)CC2)c2cccnc12` [Compound 30, 7-bromo-5-((4-(4-bromophenyl)piperazin-1-ium-1-yl)methyl)-8-hydroxyquinolin-1-ium chloride], the IC50 (EphrinB2-EphB2; Absolute AUC/IC50, Table A) was 260 nM, the IC50 (EphrinB2-EphB2; Absolute Association IC50 (300 sec), Table A) was 600 nM and the IC50 (EphrinB2-EphB2; Relative AUC/IC50, Table A, compound 7: association only) was 290 nM and 260 nM. For the same compound, the IC50 (EphrinB2-EphB2; Relative Dissociation IC50 (450 sec), Table A) was 340 nM, the “EphB1 Inhibition Percent, Inhibition of Association ONLY” value (EphrinB2-EphB1; at 3.2 μM and 80 seconds) was 24.7% and 39.1% and the “EphB1 Inhibition Percent, Inhibition of Association-Dissociation” value (EphrinB2-EphB1; at 3.2 μM and 580 seconds) was 38.6% and 53.1%.
